The results in this text go back to patent publication US12521393B2, “Cytotoxicity targeting chimeras for CCR2-expressing cells” (GLAXOSMITHKLINE INTELLECTUAL PROPERTY DEVELOPMENT LIMITED, priority 2021, dated 2026).

Data set [1] deals with endogenous target monocytes in human PBMC. Put plainly: PBMC ex vivo monocyte depletion flow cytometry assay (Example 200). Type of data set: cell-based. Conditions: with anti-cotinine antibody (SEQ ID NO: 11/12), 18-24 hours, EC50 in molar; for EC50: read-out: Ex Vivo Depletion Assay pEC50 (converted). The procedure, abridged: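 Monocyte depletion is reported as pEC50, averaged or given individually across runs, and read by flow cytometry staining CD45, CD14 and CD4 with a viability dye. Compounds, diluted four-fold over 11 points from 1 mM DMSO stocks, were combined with 30 μg/mL Fc-enhanced anti-cotinine antibody and human PBMC, then incubated 18-24 h at 37° C.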

Data set [2] concerns the target anti-cotinine antibody (SEQ ID NO: 11/12, rabbit variable region with human IgG1 Fc DE mutation). Put plainly: SPR binding of anti-cotinine antibody to ARM compounds, Biacore T200, 37° C. (Example 202). The conditions noted are these: SPR Biacore T200, 37° C., pH 7.4, antibody SEQ ID NO: 11/12 captured on protein A; Kd in molar. The procedure, abridged:
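Antibody captured on a protein A chip; ARM compounds injected at 100 μL/min (200 s association, 2000 s dissociation), 3-fold 5-point series from 200 nM, at 37 °C in HEPES pH 7.4 buffer with 0.005% P20 and 1% DMSO. Double-referenced sensorgrams fit 1:1 for kon, koff, Kd (koff/kon), residence time (1/koff); pKd averaged across runs.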
A general note: SPR reads the build-up and loss of mass on a sensor chip optically.

Data set [3] has as its target T1, CHOK1 cells engineered to overexpress human CCR2 (Homo sapiens, UniProt P41597).
T1 construct: expressed in transfected cells; host or cells: CHOK1
In words: Antibody dependent cellular cytotoxicity (ADCC) reporter assay (Example 199). Format: cell-based. The conditions noted are these: with anti-cotinine antibody (SEQ ID NO: 11/12), Jurkat FcγRIIIa NFAT-luciferase reporter cells, 12-18 hours, EC50 in molar, average or individual runs; for EC50: read-out: ADCC Reporter Assay pEC50 (converted). The procedure:
An antibody dependent cellular cytoxocity reporter assay was conducted using the following four assay components: (i) ARM compound of Formula (I) targeting CCR2 (concentrations ranging from […] to 10 μM) (ii) anti-cotinine antibody having a heavy chain sequence of SEQ ID NO: 11 and a light chain sequence of SEQ ID NO: 12 (rabbit variable region with human IgG1 Fc domain containing a DE mutation (S239D/1332E)) (concentrations ranging from 0.01 μg/mL to 200 μg/mL); (iii) target cells: CHOK1 cells engineered to overexpress either human CCR2 (typically 1000-20,000 cells per well) and (iv) reporter cells: Jurkat cells engineered to express FcγRIIIa with the reporter gene luciferase under the control of the NFAT promoter (typically 3000-75,000 cells per well). Reagents were combined in a final volume of 20 μL in a 384-well tissue culture treated plate. All four assay components were incubated together for about 12-18 hours. Thereafter, BioGlo Detection reagent (Promega) was added to the wells to lyse the cells and provide a substrate for the luciferase reporter protein. Luminescence signal was measured on a microplate reader and signal: background was calculated by dividing the signal of a test well by the signal obtained when no heterobivalent compound of Formula (I) was added. EC50 calculations were done using Graphpad Prism Software, specifically a nonlinear regression curve fit (Y=Bottom+(Top−Bottom)/(1+10A((LogEC50−X)*HillSlope))).
ARMs compounds of Formula (I) of the invention were tested for ADCC activity in the above assay in or more experimental runs and the results are shown in Table 3 below. Potency of the compounds of Formula (I) of the invention is reported as a pEC50 value. The pEC50 value is the negative log of the EC50 value, wherein the EC50 value is the half maximal effective concentration measured in molar (M). For compounds tested in more than one experimental run, the pEC50 value is reported as an average.
In general terms: Reporter assays use an easily measured gene product as a stand-in for the process of interest.

Data set [4] is described as follows: Blood drug concentration analysis by LC-MS/MS after IV dosing with anti-cotinine antibody (Example 201). Type of data set: in vivo. The conditions noted are these: C57 background, human CCR2 knock-in, mouse; hCCR2 knock-in mice, IV 0.1 mpk compound + 10 mpk anti-cotinine antibody, whole blood, 48 hours post-dose; read-out: Exposure of Compound of Formula (I) 48 hours post-dose. The procedure:
After bleeding, each mouse was sacrificed by cervical dislocation. […] Flow Cytometry Analysis:
Samples were analyzed on Q-Trap. […] The total run time was 2 minutes.

Data set [5] deals with CCR2 expressing cells (CD11b+Ly6c+Hi) in peripheral blood. In words: In vivo depletion assay, flow cytometry of peripheral blood (Example 201). Also on record: species or system human CCR2 knock-in mice (C57 background). Conditions: hCCR2 knock-in mice, IV 0.1 mpk compound + 10 mpk anti-cotinine antibody (SEQ ID NO: 13/14), peripheral blood at 48 hr. The procedure, abridged:
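Mice dosed with compound formulated in saline/DMSO/PBS, with anti-cotinine antibody (rabbit variable region, mouse IgG2a Fc) where required, pre-incubated 30 min at room temperature. Terminal peripheral blood RBC-lysed, Fc-blocked, stained for CD45, CD3, CD11b, Ly6C, human CCR2 and 7AAD; percent depletion of CD11b+Ly6c+Hi cells determined by flow cytometry.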
A general note: A flow cytometer gives signals particle by particle.

Values joined by “and” are separate entries in the source; they are usually repeats but may differ in a detail not shown here. Equal entries are not always repeated.

For the molecule `CN1C(=O)C[C@H](C(=O)NCCCOCCCNC(=O)CCCC(=O)NC2CCC(C(=O)N[C@@H]3C[C@H](NC(C)(C)C)CC[C@@H]3N3CC[C@H](Nc4ncnc5ccc(C(F)(F)F)cc45)C3=O)CC2)[C@H]1c1cccnc1` (stereo partly drawn) [Example 22, N1-((1R,4r)-4-(((1R,2S,5R)-5-(tert-Butylamino)-2-((S)-2-oxo-3-((6-(trifluoromethyl)quinazolin-4-yl)amino)pyrrolidin-1-yl)cyclohexyl)carbamoyl)cyclohexyl)-N5-(3-(3-((2S,3S)-1-methyl-5-oxo-2-(pyridin-3-yl)pyrrolidine-3-carboxamido)propoxy)propyl)glutaramide], the “Ex Vivo Depletion Assay pEC50” value in data set [1] is listed as 9.2. The “pKd of Antibody for ARM Compound of Formula (I)” value in data set [2] is 9.2495. Moreover, the “ADCC Reporter Assay pEC50” value in data set [3] is 9 and 9.3.

Consider `CC(C)N(C)[C@@H]1CC[C@H](N2CC[C@H](Nc3ncnc4ccc(C(F)(F)F)cc34)C2=O)[C@H](NC(=O)[C@H]2CC[C@H](N3CCN(S(=O)(=O)C4CCN(C(=O)[C@H](C)NC(=O)[C@H]5CC(=O)N(C)[C@@H]5c5cccnc5)CC4)CC3)CC2)C1` [Example 70, (2S,3S)-N-((S)-1-(4-((4-((1R,4S)-4-(((1R,2S,5R)-5-(isopropyl(methyl)amino)-2-((S)-2-oxo-3-((6-(trifluoromethyl)quinazolin-4-yl)amino)pyrrolidin-1-yl)cyclohexyl)carbamoyl)cyclohexyl)piperazin-1-yl)sulfonyl)piperidin-1-yl)-1-oxopropan-2-yl)-1-methyl-5-oxo-2-(pyridin-3-yl)pyrrolidine-3-carboxamide], for which the EC50 in data set [1] was 0.1 nM; in data set [3], 0.794 nM. Moreover, the concentration at 48 h in data set [4] is 2.3 ng/mL. In data set [5], the “% Depletion of CCR2 expressing cells” value stood at 30.51%.

`CC(C)N(C)[C@@H]1CC[C@H](N2CC[C@H](Nc3ncnc4ccc(C(F)(F)F)cc34)C2=O)[C@H](NC(=O)[C@H]2CC[C@@H](N3CCN(S(=O)(=O)C4CCN(C(=O)[C@H](C)NC(=O)[C@H]5CC(=O)N(C)[C@@H]5c5cccnc5)CC4)CC3)CC2)C1` [Example 71, (2S,3S)-N-((S)-1-(4-((4-((1S,4R)-4-(((1R,2S,5R)-5-(Isopropyl(methyl)amino)-2-((S)-2-oxo-3-((6-(trifluoromethyl)quinazolin-4-yl)amino)pyrrolidin-1-yl)cyclohexyl)carbamoyl)cyclohexyl)piperazin-1-yl)sulfonyl)piperidin-1-yl)-1-oxopropan-2-yl)-1-methyl-5-oxo-2-(pyridin-3-yl)pyrrolidine-3-carboxamide]: the figures for the EC50 in data set [1] and in data set [3] were 0.794 nM and 10 nM, respectively. The concentration at 48 h in data set [4] was 1 ng/mL. Also, the “% Depletion of CCR2 expressing cells” value in data set [5] is 35.25%.

Regarding `CC(C)N(CCOCCOCCC(=O)N[C@H]1CC[C@@H](C(=O)N[C@@H]2C[C@H](N(C)C(C)C)CC[C@@H]2N2CC[C@H](Nc3ncnc4ccc(C(F)(F)F)cc34)C2=O)CC1)C(=O)CCNC(=O)[C@H]1CC(=O)N(C)[C@@H]1c1cccnc1` [Example 178, (2S,3S)-N-(3-(Isopropyl(2-(2-(3-(((1S,4s)-4-(((1R,2S,5R)-5-(isopropyl(methyl)amino)-2-((S)-2-oxo-3-((6-(trifluoromethyl)quinazolin-4-yl)amino)pyrrolidin-1-yl)cyclohexyl)carbamoyl)cyclohexyl)amino)-3-oxopropoxy)ethoxy)ethyl)amino)-3-oxopropyl)-1-methyl-5-oxo-2-(pyridin-3-yl)pyrrolidine-3-carboxamide], the EC50 in data set [1] was 0.398 nM; in data set [3] it was 0.501 nM and 0.126 nM.
